Data on 24 compounds can be found in the PolyMetriX glass transition set.

± gives the standard deviation of the reports.

`*C(=O)c1ccc2c(c1)C(=O)N(c1ccc(C)c(N3C(=O)c4ccc(*)cc4C3=O)c1)C2=O` (repeat unit) came in with a glass transition temperature of 317.2 ± 3.2 °C.
As to `*C(=O)c1ccc2c(c1)C(=O)N(c1ccc(Cc3ccc(N4C(=O)c5ccc(*)cc5C4=O)cc3)cc1)C2=O` (repeat unit), the glass transition temperature was 292.50 ± 9.3 °C.
On to `*C(C)C(*)C(=O)OC12CC3CC(CC(C3)C1)C2` (repeat unit), for which the glass transition temperature stood at 236.50 °C.
Compound `*C(F)(F)C(*)(F)C(F)(F)C(F)(F)C(F)(F)C(F)(F)C(F)(F)F` (repeat unit) came in with a glass transition temperature of 232.50 °C.
Consider `*C(F)(F)C(*)(F)OC(F)(F)F` (repeat unit), for which the glass transition temperature is -5.00 °C.
The figure for `*CC(C#N)C(CCC(C)(O)C=C)C(*)(C)C` (repeat unit) is 50.00 °C; for `*CC(OC1CCCCC1)C1C(=O)OC(=O)C1*` (repeat unit) it is 201.00 °C.
The compound `*CC(c1ccccn1)C(c1ccccc1)C(*)c1ccccn1` (repeat unit) displayed a glass transition temperature of 150.00 °C.
Regarding `*c1cc(CCCCCCCCCC)c(*)s1` (repeat unit), the glass transition temperature was -30.00 ± 4.2 °C.
For the compound `*c1ccc(*)s1` (repeat unit), the glass transition temperature is 152.17 ± 89 °C.
On to `*c1ccc(-c2ccc(-n3c(=O)c4cc5c(=O)n(*)c(=O)c5cc4c3=O)cc2C)c(C)c1` (repeat unit), for which the glass transition temperature came to 369.2 ± 6.7 °C.
With `*c1ccc(Oc2ccc(C(C)(C)c3ccc(Oc4ccc(N5C(=O)c6ccc(-c7ccc8c(c7)C(=O)N(*)C8=O)cc6C5=O)cc4)cc3)cc2)cc1` (repeat unit), the glass transition temperature came to 237.50 ± 15 °C.
In the case of `*c1ccc(Oc2ccc(N3C(=O)c4ccc(Oc5ccc(Oc6ccc7c(c6)C(=O)N(*)C7=O)cc5)cc4C3=O)cc2)cc1` (repeat unit), the glass transition temperature is 241.00 ± 12 °C.
For `*c1ccc(Oc2ccc(N3C(=O)c4cccc(Oc5ccc(Oc6cccc7c6C(=O)N(*)C7=O)cc5)c4C3=O)cc2)cc1` (repeat unit), the glass transition temperature was determined as 254.00 ± 15 °C.
As for `*c1ccc(Oc2ccc(Oc3ccc(N4C(=O)c5ccc(Oc6ccc7c(c6)C(=O)N(*)C7=O)cc5C4=O)cc3)cc2)cc1` (repeat unit), the figure is 247.50 ± 6.6 °C.
The compound `*c1ccc(Oc2cccc(N3C(=O)c4ccc(Oc5ccc6c(c5)C(=O)N(*)C6=O)cc4C3=O)c2)cc1` (repeat unit) came in with a glass transition temperature of 232.00 ± 18 °C.
With `*c1ccc2c(c1)C(=O)N(c1cc(C)c(N3C(=O)c4ccc(C(*)(C(F)(F)F)C(F)(F)F)cc4C3=O)cc1C)C2=O` (repeat unit), the glass transition temperature was 367.00 ± 17 °C.
For the compound `*c1ccc2c(c1)C(=O)N(c1ccc(Oc3ccc(N4C(=O)c5ccc(C(*)(C(F)(F)F)C(F)(F)F)cc5C4=O)cc3)cc1)C2=O` (repeat unit), the glass transition temperature stood at 295.50 ± 11 °C.
Regarding `*c1ccc2c(c1)C(=O)N(c1ccc(Oc3cccc(Oc4ccc(N5C(=O)c6ccc(C(*)(C(F)(F)F)C(F)(F)F)cc6C5=O)cc4)c3)cc1)C2=O` (repeat unit), the glass transition temperature was determined as 241.50 ± 18 °C.
As to `*c1ccc2c(c1)C(=O)N(c1cccc(S(=O)(=O)c3cccc(N4C(=O)c5ccc(C(*)(C(F)(F)F)C(F)(F)F)cc5C4=O)c3)c1)C2=O` (repeat unit), the glass transition temperature was found to be 275.00 ± 5.7 °C.
On to `*c1ccc2c(c1)C(CCCCCC)(CCCCCC)c1cc(*)ccc1-2` (repeat unit), for which the glass transition temperature is 102.50 ± 2.1 °C.
Consider `*c1cccc(N2C(=O)c3ccc(Oc4ccc5c(c4)C(=O)N(*)C5=O)cc3C2=O)c1` (repeat unit), for which the glass transition temperature was 270.50 ± 13 °C.
`*c1cccc(Oc2ccc(C(c3ccc(Oc4cccc(-n5c(=O)c6cc7c(=O)n(*)c(=O)c7cc6c5=O)c4)cc3)(C(F)(F)F)C(F)(F)F)cc2)c1` (repeat unit) yielded a glass transition temperature of 226.50 ± 12 °C.
Consider `*c1cccc(Oc2cccc(N3C(=O)c4ccc(Oc5ccc6c(c5)C(=O)N(*)C6=O)cc4C3=O)c2)c1` (repeat unit), for which the glass transition temperature was 206.00 ± 1.4 °C.
